Experimental findings from patent publication US8119624B2, “Fused phenyl amido heterocyclic compounds” (Pfizer Inc., priority 2006, dated 2012) are described below.

Like-named read-outs stand apart in the source and are kept apart here.

For this assay, the target named is T1, Full-length glucokinase (beta cell isoform) (Homo sapiens, UniProt P35557).
T1 construct: Full-length glucokinase (beta cell isoform) was His-tagged at N-terminus; His tag (N); made in house
T1 sequence (P35557 1-465): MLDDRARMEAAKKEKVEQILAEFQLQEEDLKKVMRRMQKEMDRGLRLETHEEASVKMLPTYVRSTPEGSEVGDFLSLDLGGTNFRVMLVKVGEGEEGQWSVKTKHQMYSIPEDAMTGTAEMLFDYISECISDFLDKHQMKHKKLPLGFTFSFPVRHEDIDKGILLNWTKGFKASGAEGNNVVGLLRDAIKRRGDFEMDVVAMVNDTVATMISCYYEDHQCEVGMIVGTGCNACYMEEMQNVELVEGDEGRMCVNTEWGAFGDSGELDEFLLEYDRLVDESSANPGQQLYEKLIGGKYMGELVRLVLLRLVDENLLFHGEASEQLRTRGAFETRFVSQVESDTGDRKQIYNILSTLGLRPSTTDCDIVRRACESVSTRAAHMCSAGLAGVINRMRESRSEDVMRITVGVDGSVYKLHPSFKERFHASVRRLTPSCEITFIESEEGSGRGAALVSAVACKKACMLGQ
Description: Glucokinase biochemical assay (PK/LDH-coupled, NADH depletion at 340 nm): % activation, EC50, % max activation. Particulars: 5 mM glucose; for EC50: read-out: EC50; for % Max Activation / Emax: fitted maximum activation; for Emax: read-out: % Max Activation; for activation at 10 µM: read-out: % Activation at 10 uM. Here is the method: Full-length glucokinase (beta cell isoform) was His-tagged at N-terminus and purified by a Ni column followed by size exclusion chromatography. Glucose was obtained from Calbiochem, and other reagents were from Sigma.
All assays were performed in a Corning 96-well plate using Spectramax PLUS spectrophotometer (Molecular Devices) at room temperature. The final assay volume was 100 uL. The buffer conditions used in this assay were as follows: 50 mM HEPES, 5 mM glucose, 1 mM ATP, 2 mM MgCl2, 0.7mM NADH, 2 mM DTT, 1 Unit/mL PK/LDH, 0.2 mM phosphoenolpyruvate, 25 mM KCl. Tested compound in DMSO solution was added to the buffer and mixed well by a plate shaker for 1 minute. The final concentration of DMSO introduced into the assay was 1%.
Glucokinase was added to the buffer mixture to initiate the reaction in the presence and absence of compound. Reaction was monitored by absorbance at 340nm due to the depletion of NADH. The initial reaction velocity was measured by the slope of a linear time course of 200-900 sec.
The percentage of activation was calculated by the following equation: % Activation=(Va/Vo−1)×100;
wherein each of Va and Vo is defined as the initial reaction velocity in the presence and absence of the tested compound, respectively.
The GK activities were measured as a function of compound concentrations.

Setting [1] is: 10 uM compound, % Activation=(Va/Vo−1)×100.
The mark [2] stands for this setting: compound at 10 uM, 1 mM ATP, room temperature.

As usually defined, the EC50 is the concentration that produces a half-maximal response. For the compound `CC1Cc2c(Oc3ccc(S(C)(=O)=O)cc3)cc(C(=O)Nc3ccn(C)n3)cc2O1` (single isomer, unassigned; (+)) [Example 13, (+)4-(4-Methanesulfonyl-phenoxy)-2-methyl-2,3-dihydro-benzofuran-6-carboxylic acid(1-methyl-1H-pyrazol-3-yl)-amide], the “% Max Activation” value was 196%. The “% Activation at 10 uM” value under setting [1] came out at 182%. Also, the EC50 (GK activation) came to 1800 nM.
For `COCC1Cc2c(Oc3ccc(C(=O)N(C)C)c(F)c3)cc(C(=O)Nc3ccn(C)n3)cc2O1` (single isomer, unassigned; (+)) [Example 207, (+)-4-(4-Dimethylcarbamoyl-3-fluoro-phenoxy)-2-methoxymethyl-2,3-dihydro-benzofuran-6-carboxylic acid (1-methyl-1H-pyrazol-3-yl)-amide] the same measures were 142%, 127% and 950 nM.
On to `COCC1Cc2c(Oc3ccc(C(=O)N4CCC4)cc3)cc(C(=O)Nc3ccn(C)n3)cc2O1` (single isomer, unassigned; (+)) [Example 210, (+)-4-[4-(Azetidine-1-carbonyl)-phenoxy]-2-methoxymethyl-2,3-dihydro-benzofuran-6-carboxylic acid (1-methyl-1H-pyrazol-3-yl)-amide], for which the “% Max Activation” value turned out to be 143%. Under setting [1], the “% Activation at 10 uM” value came out at 130%. Also, the EC50 (GK activation) worked out at 850 nM.
Take `COCC1Cc2c(Oc3ccc(C(=O)N(C)C)cc3)cc(C(=O)Nc3ccn(C)n3)cc2O1` (single isomer, unassigned; (+)) [Example 212, (+)-4-(4-Dimethylcarbamoyl-phenoxy)-2-methoxymethyl-2,3-dihydro-benzofuran-6-carboxylic acid (1-methyl-1H-pyrazol-3-yl)-amide]: the “% Max Activation” value is listed as 144%. Besides, the “% Activation at 10 uM” value under setting [1] is 111%. Besides, the EC50 (GK activation) turned out to be 2600 nM.
`COCC1(C)Cc2c(Oc3ccc(C(=O)N4CCC4)c(F)c3)cc(C(=O)Nc3ccn(C)n3)cc2O1` (single isomer, unassigned; (+)) [Example 244, (+)-4-[4-(Azetidine-1-carbonyl)-3-fluoro-phenoxy]-2-methoxymethyl-2-methyl-2,3-dihydro-benzofuran-6-carboxylic acid (1-methyl-1H-pyrazol-3-yl)-amide]: the “% Max Activation” value was found to be 234%. Moreover, the “% Activation at 10 uM” value under setting [1] is recorded as 287%. Moreover, the EC50 (GK activation) worked out at 210 nM.
For `COCC1(C)Cc2c(Oc3ccc(S(=O)(=O)C4CC4)cc3)cc(C(=O)Nc3ccn(C)n3)cc2O1` (single isomer, unassigned; (+)) [Example 248, (+)-4-(4-Cyclopropanesulfonyl-phenoxy)-2-methoxymethyl-2-methyl-2,3-dihydro-benzofuran-6-carboxylic acid (1-methyl-1H-pyrazol-3-yl)-amide] the same measures were 225%, 222% and 490 nM.
Consider `COCC1(C)Cc2c(Oc3ccc(S(=O)(=O)C4CC4)cc3)cc(C(=O)Nc3cnn(C)n3)cc2O1` (single isomer, unassigned; (+)) [Example 249, (+)-4-(4-Cyclopropanesulfonyl-phenoxy)-2-methoxymethyl-2-methyl-2,3-dihydro-benzofuran-6-carboxylic acid (2-methyl-2H-[1,2,3]triazol-4-yl)-amide], for which the Emax turned out to be 262%. Under setting [1], the “% Activation at 10 uM” value is recorded as 276%. Further, where the note is “GK activation”, the EC50 came to 86 nM.
As to `COCC1(C)Cc2c(Oc3ccc(S(=O)(=O)C4CC4)cc3)cc(C(=O)Nc3cnn(C)n3)cc2O1` (single isomer, unassigned; (+)) [Example 250, (+)-4-(4-Cyclopropanesulfonyl-phenoxy)-2-methoxymethyl-2-methyl-2,3-dihydro-benzofuran-6-carboxylic acid (2-methyl-2H-[1,2,3]triazol-4-yl)-amide], the “% Max Activation” value is recorded as 246%. The “% Activation at 10 uM” value under setting [1] was found to be 227%. Also, the EC50 (GK activation) amounted to 420 nM.
As to `Cc1ccc(NC(=O)c2cc(Oc3ccc(S(=O)(=O)C4CC4)c(F)c3)c3c(c2)OC(C)(CO)C3)nc1` (single isomer, unassigned; (+)) [Example 401, (+)-4-(4-Cyclopropanesulfonyl-3-fluoro-phenoxy)-2-hydroxymethyl-2-methyl-2,3-dihydro-benzofuran-6-carboxylic acid(5-methyl-pyridin-2-yl)-amide], where the note is “1 mM ATP, room temperature”, the 50% effective concentration (EC50) was determined as 290 nM. Besides, the activation at 10 µM under setting [2] came out at 131%. The Emax (1 mM ATP) came to 139%.
Regarding `CC1Cc2c(Oc3ccc(S(C)(=O)=O)cc3)cc(C(=O)Nc3ccn(C)n3)cc2O1` (single isomer, unassigned; (-)) [Example 12, (−)-4-(4-Methanesulfonyl-phenoxy)-2-methyl-2,3-dihydro-benzofuran-6-carboxylic acid(1-methyl-1H-pyrazol-3-yl)-amide], the “% Max Activation” value is given as 195%. Under setting [1], the “% Activation at 10 uM” value is on record as 162%. For the same compound, under “GK activation”, the EC50 was determined as 3000 nM.
As for `COCC1Cc2c(Oc3ccc(C(=O)N(C)C)c(F)c3)cc(C(=O)Nc3ccn(C)n3)cc2O1` (single isomer, unassigned; (-)) [Example 206, (−)-4-(4-Dimethylcarbamoyl-3-fluoro-phenoxy)-2-methoxymethyl-2,3-dihydro-benzofuran-6-carboxylic acid (1-methyl-1H-pyrazol-3-yl)-amide], the “% Max Activation” value came to 102%. The “% Activation at 10 uM” value under setting [1] was 91.3%. In addition, the EC50 (GK activation) is 270 nM.
For `COCC1Cc2c(Oc3ccc(C(=O)N4CCC4)cc3)cc(C(=O)Nc3ccn(C)n3)cc2O1` (single isomer, unassigned; (-)) [Example 209, (−)-4-[4-(Azetidine-1-carbonyl)-phenoxy]-2-methoxymethyl-2,3-dihydro-benzofuran-6-carboxylic acid (1-methyl-1H-pyrazol-3-yl)-amide], the “% Max Activation” value was 96%. Moreover, the “% Activation at 10 uM” value under setting [1] amounted to 87%. Moreover, under “GK activation”, the EC50 was found to be 380 nM.
With `COCC1Cc2c(Oc3ccc(C(=O)N(C)C)cc3)cc(C(=O)Nc3ccn(C)n3)cc2O1` (single isomer, unassigned; (-)) [Example 213, (−)-4-(4-Dimethylcarbamoyl-phenoxy)-2-methoxymethyl-2,3-dihydro-benzofuran-6-carboxylic acid (1-methyl-1H-pyrazol-3-yl)-amide], the “% Max Activation” value is listed as 113%. For the same compound, under setting [1], the “% Activation at 10 uM” value is reported as 83.1%. Further, the EC50 (GK activation) is 890 nM.
For `COCC1(C)Cc2c(Oc3ccc(C(=O)N4CCC4)c(F)c3)cc(C(=O)Nc3ccn(C)n3)cc2O1` (single isomer, unassigned; (-)) [Example 243, (−)-4-[4-(Azetidine-1-carbonyl)-3-fluoro-phenoxy]-2-methoxymethyl-2-methyl-2,3-dihydro-benzofuran-6-carboxylic acid (1-methyl-1H-pyrazol-3-yl)-amide], the Emax was found to be 218%. In addition, the activation at 10 µM under setting [1] is 275%. In addition, the EC50 (GK activation) came to 41 nM.
Take `COCC1(C)Cc2c(Oc3ccc(S(=O)(=O)C4CC4)cc3)cc(C(=O)Nc3ccn(C)n3)cc2O1` (single isomer, unassigned; (-)) [Example 247, (−)-4-(4-Cyclopropanesulfonyl-phenoxy)-2-methoxymethyl-2-methyl-2,3-dihydro-benzofuran-6-carboxylic acid (1-methyl-1H-pyrazol-3-yl)-amide]: the “% Max Activation” value is on record as 254%. Moreover, under setting [1], the “% Activation at 10 uM” value came to 252%. The EC50 (GK activation) turned out to be 83 nM.
Take `Cc1ccc(NC(=O)c2cc(Oc3ccc(S(=O)(=O)C4CC4)c(F)c3)c3c(c2)OC(C)(CO)C3)nc1` (single isomer, unassigned; (-)) [Example 402, (−)-4-(4-Cyclopropanesulfonyl-3-fluoro-phenoxy)-2-hydroxymethyl-2-methyl-2,3-dihydro-benzofuran-6-carboxylic acid(5-methyl-pyridin-2-yl)-amide]: the “% Activation at 10 uM” value under setting [2] is 19.9%.
